ChEMBL document CHEMBL1201862, “PubChem BioAssay data set” (2004)
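1) Cells in 96-well plates. 2) Compound, 48 h, 5 concentrations. 3) Linear interpolation between surrounding doses. 4) Unreached endpoint = highest concentration. GI50 is the concentration that inhibits growth by half.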 The source made the active and inactive calls. Cut-off read from the data, not from the text of the source: active = GI50 up to about 1.1 µM and inactive = higher.

Experiments:
Experiment in all cases: NCI-60 cell line screen, 48 h
HCC 2998 = system: HCC 2998
SF-539 = system: SF-539
NCI-H460 = system: NCI-H460
A498 = system: A498
SK-MEL-2 = system: SK-MEL-2
PC-3 = system: PC-3
OVCAR-4 = system: OVCAR-4
UACC-62 = system: UACC-62
UO-31 = system: UO-31
SK-MEL-5 = system: SK-MEL-5
SF-295 = system: SF-295
DU-145 = system: DU-145
K562 = system: K562
IGROV-1 = system: IGROV-1
Malme-3M = system: Malme-3M
OVCAR-5 = system: OVCAR-5
HOP-92 = system: HOP-92
LOX IMVI = system: LOX IMVI
SR = system: SR
U-251 = system: U-251

| SMILES | GI50 (HCC 2998) | GI50 (SF-539) | GI50 (NCI-H460) | GI50 (A498) | GI50 (SK-MEL-2) | GI50 (PC-3) | GI50 (OVCAR-4) | GI50 (UACC-62) | GI50 (UO-31) | GI50 (SK-MEL-5) | GI50 (SF-295) | GI50 (DU-145) | GI50 (K562) | GI50 (IGROV-1) | GI50 (Malme-3M) | GI50 (OVCAR-5) | GI50 (HOP-92) | GI50 (LOX IMVI) | GI50 (SR) | GI50 (U-251) |
| --- | --- | --- | --- | --- | --- | --- | --- | --- | --- | --- | --- | --- | --- | --- | --- | --- | --- | --- | --- | --- |
| Cc1cc(O)c2c(c1)CC(O)C1=C2C(=O)c2c(O)ccc(OC3CC(O)C(OC4CC(OC5CCC(O)C(C)O5)C(O)C(C)O4)C(C)O3)c2C1=O (stereo unspecified) | 1.85 µM (inactive) | 1.85 µM (inactive) | 2.16 µM (inactive) | 2.33 µM (inactive) | 1.58 µM (inactive) | 1.71 µM (inactive) | 1.79 µM (inactive) | 1.68 µM (inactive) | 1.5 µM (inactive) | 1.43 µM (inactive) | 2.34 µM (inactive) | 1.72 µM (inactive) | 1.63 µM (inactive) | 1.47 µM (inactive) | 0.789 µM (active) | 3.81 µM (inactive) | 1.86 µM (inactive) | 1.33 µM (inactive) | 0.324 µM (active) | 1.32 µM (inactive) |
| Cc1cc(C)c(-n2c(-c3ccc(Br)cc3)cs/c2=N\N=C2C=C(C(C)(C)C)C(=O)C(C(C)(C)C)=C2)c(C)c1 | > 100 µM (inactive) | > 69.3 µM (inactive) | > 100 µM (inactive) | 31.3 µM (inactive) | > 100 µM (inactive) | > 100 µM (inactive) | > 100 µM (inactive) | > 81.1 µM (inactive) | > 100 µM (inactive) | > 100 µM (inactive) | > 41.5 µM (inactive) | > 100 µM (inactive) | > 100 µM (inactive) | > 63.7 µM (inactive) | > 100 µM (inactive) | > 100 µM (inactive) | > 50.1 µM (inactive) | > 100 µM (inactive) | > 100 µM (inactive) | 31.2 µM (inactive) |
| O=C1CSC2(CC(/C=C/c3ccccc3[N+](=O)[O-])=NN2c2cccc(S(=O)(=O)O)c2)N1c1nc2ccccc2s1 (stereo unspecified) | 30.3 µM (inactive) | 23.5 µM (inactive) | 17 µM (inactive) | 18.2 µM (inactive) | 15.2 µM (inactive) | 15.3 µM (inactive) | 15.3 µM (inactive) | 13.6 µM (inactive) | 14.2 µM (inactive) | 25.4 µM (inactive) |  | 12.5 µM (inactive) | 19.5 µM (inactive) | 15.3 µM (inactive) | 24.4 µM (inactive) | 19.3 µM (inactive) | 25.5 µM (inactive) | 16.4 µM (inactive) | 20.2 µM (inactive) | 14.5 µM (inactive) |
| CCO/C(Cc1ccc(Cl)cc1)=N/NC(N)=S | > 100 µM (inactive) | > 100 µM (inactive) | > 100 µM (inactive) | > 100 µM (inactive) | > 100 µM (inactive) | > 100 µM (inactive) | > 100 µM (inactive) | > 100 µM (inactive) | 72.9 µM (inactive) | 84.5 µM (inactive) | > 100 µM (inactive) | > 100 µM (inactive) | 83 µM (inactive) | > 100 µM (inactive) | > 100 µM (inactive) | > 100 µM (inactive) | > 100 µM (inactive) | > 100 µM (inactive) | > 100 µM (inactive) | > 100 µM (inactive) |
| C=C1C(=O)OC2CC1C(OC(=O)/C=C/c1ccccc1)C/C(C)=C/CC/C(C)=C/CCC2(C)O (stereo unspecified) | 1.58 µM (inactive) | 1.46 µM (inactive) | 1.36 µM (inactive) | 1.91 µM (inactive) | 1.48 µM (inactive) | 1.63 µM (inactive) | 0.82 µM (active) | 1.95 µM (inactive) | 1.61 µM (inactive) | 1.85 µM (inactive) | 1.56 µM (inactive) | 1.68 µM (inactive) | 0.906 µM (active) | 1.56 µM (inactive) | 2 µM (inactive) | 1.75 µM (inactive) | 1.52 µM (inactive) | 0.828 µM (active) | 0.778 µM (active) | 1.84 µM (inactive) |
| CC1CC[C@@]2(OC1)OC1C[C@H]3[C@@H]4C/C(=N\N(C)C)[C@@]5(O)CC(O)CC[C@]5(C)[C@H]4CC[C@]3(C)C1[C@@H]2C (stereo partly specified) | 68.5 µM (inactive) | 36 µM (inactive) | 45.9 µM (inactive) | 34.7 µM (inactive) | 36.7 µM (inactive) | 33.7 µM (inactive) | 74.6 µM (inactive) | 37.5 µM (inactive) | 55.5 µM (inactive) | 42 µM (inactive) |  | > 100 µM (inactive) | 38.7 µM (inactive) | 89.1 µM (inactive) | 29.7 µM (inactive) | 43.5 µM (inactive) | 98.2 µM (inactive) | 42.5 µM (inactive) | 22.5 µM (inactive) | 37.2 µM (inactive) |
| CC(C)(C)OC(=O)N(O)CCCn1cnc2c(N)ncnc21 | > 100 µM (inactive) | > 100 µM (inactive) | > 100 µM (inactive) | > 100 µM (inactive) | > 100 µM (inactive) | > 100 µM (inactive) | > 100 µM (inactive) | > 100 µM (inactive) | > 100 µM (inactive) | > 100 µM (inactive) | > 100 µM (inactive) | > 100 µM (inactive) | > 100 µM (inactive) | > 100 µM (inactive) | > 100 µM (inactive) | > 100 µM (inactive) | > 100 µM (inactive) | > 100 µM (inactive) | > 100 µM (inactive) | > 100 µM (inactive) |
| O=C(OCCNC(=O)N1CC1)OCCNC(=O)N1CC1 | > 10 µM (inactive) | > 10 µM (inactive) | > 10 µM (inactive) | > 10 µM (inactive) | > 10 µM (inactive) | > 10 µM (inactive) | > 10 µM (inactive) | > 10 µM (inactive) | > 10 µM (inactive) | > 10 µM (inactive) | > 10 µM (inactive) | > 10 µM (inactive) | > 10 µM (inactive) | > 10 µM (inactive) | > 10 µM (inactive) | > 10 µM (inactive) | > 10 µM (inactive) | > 10 µM (inactive) | > 10 µM (inactive) | > 10 µM (inactive) |
| O=c1[nH]c(=S)[nH]cc1CN1CCOCC1 | > 100 µM (inactive) | > 100 µM (inactive) | > 100 µM (inactive) | > 100 µM (inactive) | > 100 µM (inactive) | > 100 µM (inactive) | > 100 µM (inactive) | > 100 µM (inactive) | > 100 µM (inactive) | > 100 µM (inactive) | > 100 µM (inactive) | > 100 µM (inactive) | > 100 µM (inactive) | > 100 µM (inactive) | > 100 µM (inactive) | > 100 µM (inactive) | > 100 µM (inactive) | > 100 µM (inactive) | > 100 µM (inactive) | > 100 µM (inactive) |
| COC(=O)C1C(=O)C(C(=O)OC)C2CCC1N2C (stereo unspecified) | > 100 µM (inactive) | 33.5 µM (inactive) | 48.3 µM (inactive) | 76.9 µM (inactive) | 20 µM (inactive) | 29.4 µM (inactive) | 39.8 µM (inactive) | 40.3 µM (inactive) | 59.8 µM (inactive) | > 100 µM (inactive) | > 100 µM (inactive) | 28.8 µM (inactive) | 31.8 µM (inactive) | 22.9 µM (inactive) | 20.2 µM (inactive) | > 100 µM (inactive) | 16 µM (inactive) | 35.4 µM (inactive) | 32.1 µM (inactive) | 56.1 µM (inactive) |
| OC(C/C(=N\N=C(/CC(O)(C(F)(F)F)C(F)(F)F)c1ccccc1)c1ccccc1)(C(F)(F)F)C(F)(F)F | > 10 µM (inactive) | > 10 µM (inactive) | > 10 µM (inactive) | > 10 µM (inactive) | > 10 µM (inactive) | > 10 µM (inactive) | > 10 µM (inactive) | > 10 µM (inactive) |  | > 10 µM (inactive) | 6.44 µM (inactive) | > 10 µM (inactive) | > 10 µM (inactive) | > 10 µM (inactive) | > 10 µM (inactive) | > 10 µM (inactive) | > 10 µM (inactive) | > 10 µM (inactive) | > 10 µM (inactive) | > 10 µM (inactive) |
| CC1(C)OC[C@@H](C[C@H](O)COCc2ccccc2)O1 | > 100 µM (inactive) | > 100 µM (inactive) | > 100 µM (inactive) | > 100 µM (inactive) | > 100 µM (inactive) | > 100 µM (inactive) | > 100 µM (inactive) | > 100 µM (inactive) | > 100 µM (inactive) | > 100 µM (inactive) | > 100 µM (inactive) | > 100 µM (inactive) | > 100 µM (inactive) | > 100 µM (inactive) | > 100 µM (inactive) | > 100 µM (inactive) | > 100 µM (inactive) | > 100 µM (inactive) | > 100 µM (inactive) | > 100 µM (inactive) |
| CN(C)c1ccc(/C=C2\N=C(NN)NC2=O)cc1 | 80.9 µM (inactive) | 35.2 µM (inactive) | 69.8 µM (inactive) | 98.2 µM (inactive) | > 100 µM (inactive) | 40.2 µM (inactive) | 79.4 µM (inactive) | > 100 µM (inactive) | 94.6 µM (inactive) |  | > 100 µM (inactive) | 76.7 µM (inactive) | 10.1 µM (inactive) | 75.5 µM (inactive) | > 100 µM (inactive) | > 100 µM (inactive) | 59.8 µM (inactive) | 35.3 µM (inactive) | 23.4 µM (inactive) | 47.6 µM (inactive) |
| CCN(CC)CCNC(=O)c1cn2c(ccc3sc4ccccc4c(=O)c32)n1 | 10.1 µM (inactive) | 10.8 µM (inactive) | 1.03 µM (active) | 15.3 µM (inactive) | 21 µM (inactive) | 10.8 µM (inactive) | 7.89 µM (inactive) | 15.1 µM (inactive) | 7.03 µM (inactive) | 7.26 µM (inactive) | 10.5 µM (inactive) | 12 µM (inactive) | 6.28 µM (inactive) | 5.38 µM (inactive) | 11.6 µM (inactive) | 8.57 µM (inactive) | 8.91 µM (inactive) | 9.18 µM (inactive) | 1.25 µM (inactive) | 13.7 µM (inactive) |
